# Literature values as cited in patent publication US11078226B2, “Fluorogenic glycosidase substrate and associated detection method” (ECOLE NORMALE SUPERIEURE DE LYON, priority 2016, dated 2021).
# Conditions: cited from earlier work
compound,measurement,value
"O=c1[nH]c(-c2cc(Cl)ccc2O)nc2ccc(Cl)cc12 [dichloro-HPQ, 6-chloro-2-(5-chloro-2-hydroxyphenyl)-4(3H)-quinazolinone]",solubility in aqueous/physiological media,completely insoluble
